Several values for one entry are separate records, joined by “and”; a condition that tells them apart may be missing. Equal entries are not always repeated. Entries after “also recorded” stand apart in the source; their conditions may differ. Blank lines part the entries; values can stand above or below the compound they belong to.
How the values were obtained:
[1] = system: P. falciparum (Dd2 strain); test: ABS P. falciparum growth inhibition, SYBR Green I assay, 72 h endpoint; format: cell-based, Plasmodium falciparum; settings: for EC50: Plasmodium falciparum, DD2, Table 2, enantiopure, SYBR Green I, 72 h endpoint, average ± S.E.M, read-out: Dd2 strain P. falciparum growth inhibition EC50
Experimental: Parasites were maintained in O-positive human erythrocytes (Grifols, Memphis, TN, USA) at 5% hematocrit in RPMI 1640 medium supplemented with 5 g L^−1 Albumax I (Gibco Life Technologies), 2 g L^−1 glucose (Sigma-Aldrich), 2.3 g L^−1 sodium bicarbonate (Sigma-Aldrich), 370 μM hypoxanthine (Sigma-Aldrich), 25 mM HEPES, and 20 mg L^−1 gentamicin (Gibco Life Technologies). The parasites were kept at 37 °C under reduced-oxygen conditions (5% CO2, 5% O2, and 90% N2).
(§1) […]. MMV008138 (1) was used as control. The percentage of growth was normalized to that of untreated control parasites in the presence of 0.1% DMSO. Background determinations were made using uninfected erythrocytes. Two or more independent experiments in duplicate were performed. The EC50 values were calculated with GraphPad Prism 9 (GraphPad Software Ltd.) using nonlinear regression curve fitting with variable slope (four parameters) and represent the average and their standard error of the mean (S.E.M.). To assess whether 20a–e specifically targeted the apicoplast, the recovery of growth in the presence of inhibitor and isopentenyl diphosphate (IPP) was performed as described previously.[8] Briefly, parasites were grown in the presence or absence of 200 μM IPP along with a serial dilution (10 μM to 0.01 μM) or single concentration (10 or 20 μM) of drug. […] All conditions were set in 96-well half area plates using highly synchronous ring-stage parasite cultures (100 μL per well at 1% hematocrit and 1% parasitemia) and incubated for 72 h under normal culture conditions. Parasite growth was measured by the SYBR green I assay.

[2] = system: P. falciparum (Dd2 strain); test: Metabolic rescue of parasite growth by isopentenyl diphosphate (IPP) supplementation; format: cell-based, Plasmodium falciparum
Experimental: as §1

in vitro [3] = settings: female, CD-1, mouse, microsomes, pH 7.4
Experimental: Mouse microsomal stability of 20a, 20c, 20d was first assessed in our laboratory. […]
and coumarin were used as controls . Microsomal stability was assessed by ultra-performance liquid chromatography and high -resolution mass spectrometry […]
MA). Potassium phosphate monobasic, potassium phosphate dibasic, and coumarin were purchased from Sigma-Aldrich (St. Louis, MO). Briefly, compound incubations were carried out by the addition of mouse liver microsomes (0.5 mg/ml) in 0.05 M potassium phosphate buffer (pH 7.4), solution A and B, and preincubated at 37°C for 5 min. Control experiments were also carried out in the absence of NADPH solution A and B. Coumarin reaction was used as positive control. Reactions were terminated by adding acetonitrile. Sample analysis was performed on an IonKey/MS system composed of an ACQUITY UPLC M-Class, the ionKey source, and an iKey BEH C18 130 Å 1.7 µm 150 µm x 50 mm column coupled to a Synapt G2-Si mass spectrometer (Waters Corporation, Milford, MA, USA). Separation was accomplished using a binary gradient system consisting of 0.1% formic acid in water (mobile phase A) and 0.1% formic acid in acetonitrile (mobile phase B). The linear gradient was programmed as follows: 0-3 min 1% B, 3- […]
was 3 µL/min, the injection volume was 3 µL in full loop mode, and the iKey temperature was set at 40°C. MS analyses were performed acquiring in MSE mode from 80 to 1500 m/z in positive electrospray ionization mode with a capillary voltage of 3 kV. Data were collected in two channels all the time: low collision energy (6.0 V), for the molecular ions, and high collision energy (15-40 V), for product ions. The source temperature was set at 110°C. Leucine […]
scan at 20 s intervals. Infusion flow rate for lock mass was 1 μL/min. The microsomal stability was determined using MassLynx software (Waters Corporation, Milford, MA, USA). Relative amounts were calculated by comparing the peak area of each evaluated compound at time 0 minutes to its corresponding area at times 45, 90 and 180 minutes to return a ratio.

in vitro [4] = settings: male, mouse, microsomes; for % remaining, Replicate 1 / Replicate 2: 1 µM; for remaining at 0.5 min, 1 µM / remaining at 5 min, 1 µM / remaining at 10 min, 1 µM / remaining at 0.25 h, 1 µM / remaining at 20 min, 1 µM / remaining at 0.5 h, 1 µM: % remaining, Replicate 1 / Replicate 2
Experimental: Metabolic stability of 1 was studied in pooled male mouse liver microsomes (final concentration 0.5 mg/mL, 5 mM MgCl 2, 100 mM phosphate buffer). The final concentration of test […]
The mixture was pre-warmed 37°C for 5 min before addition of 50 μL of 10 mM NADPH solution at the final concentration of 1 mM and carried out at 37°C. 50 μL of ultra-pure H2O was used instead of NADPH solution in the […]
negative control. […] Drug […]
concentrations were determined using triple quad LC-MS (Table S5).
(§2) (1 picture or pasted object on this page, not shown here)

in vivo = settings: mouse
Experimental: 3. Pharmacokinetics of 1 in mice
Pharmacokinetic analysis of 1 in mice was performed by Pharmaron (Beijing, China). Three mice each (23 ± 1 g) were used for oral (40 mg/kg, gavage, conscious) and for IV (10 mg/kg, lateral tail vein with anesthesia) administration. The vehicle for both routes wa s 20% DMSO, 60% PEG400 and 20% SBE-β-CD (30% w/v) in water. Stock concentrations were 4 mg/mL (both oral and IV respectively), and mice were dosed at 10.0 and 2.5 mL/kg (oral and IV respectively).
Quantitation was performed by triple-quad LC-MS.

[5] = system: Plasmodium berghei ANKA expressing luciferase (PbGFP-Luccon); test: In vivo efficacy in P. berghei-infected mice (luminescence on Day 7)
Experimental: 2. In vivo efficacy studies of 1 (NYU) in P. berghei-infected mice (po and iv) Efficacy of 1 in P. berghei-infected mice was assessed at the Anti-Infectives Core Facility, Department of Microbiology, Grossman School of Medicine, New York University.
A. Oral Administration Protocol
Three groups of five female Swiss Webster mice weighing 25 to 30 g were used for vehicle […]
berghei ANKA expressing luciferase (PbGFP-Luccon) obtained from a donor infected mouse.10 […]
2 to 6 and imaged on day 7.
Figure S1. Dosing and imaging timeline of P. berghei-infected mice. […]
Day 7 as described in the text.
The vehicle for all groups was 0.5% (hydroxypropyl)methyl cellulose, 0.5% Tween-80.
For the surviving mice, o n day 7 after infection, mice were anesthetized by inhalation of isofluorane and injected via i.p. with 150 mg/kg of luciferase substrate dissolved in PBS (D-Luciferin Potassium Salt , Gold Biotechnology ).
Mice were imaged 5 to 10 min after inj ection of luciferin using an IVIS imager (Lumina II In Vivo Imaging System; Perkin -Elmer). The data acquisition and analysis were performed with LivingImage (Xenogen). Accumulated light intensity was measured in each mouse to determine the baseline infection levels before treatment .
as §2
B. IV Administration Protocol
One group of four female Swiss Webster mice weighing 25 to 30 g were used for vehicle control, and groups of five mice were used for 1 treatment (IV, 2 x 30 mg/kg/d) and the positive […]
On Day 0, mice were infected via intraperitoneal (i.p.) […]
from a donor infected mouse. 10 As shown below in Figure S2 (and legend), mice were treated […]
Figure S2. Dosing and imaging timeline of P. berghei-infected mice. Vehicle and 1 (30 mpk) treatments were administered IV twice -daily on Days 2-6. […]
administered i .p. once-daily. Mice were imaged on Day 7, as described in the text.
The vehicle for this study was 30%PEG, 40% Captisol (30%w/v solution).
Table S2. Luminescence Data after background subtraction for IV dosing of Vehicle, 1, and IP […]
Table S9. Concentration of 20c vs time in mice. […]
Figure S6. Dosing and imaging timeline of P. berghei-infected mice. […]

[6] = iv, 10 mg/kg, plasma concentration
[7] = po, 40 mg/kg, plasma concentration
[8] = Table S10, 40 mg/kg 1 x daily PO Days 2-6, imaged Day 7

EC50 [1]: 451 ± 28 nM | half-life (in vitro [3]): ~0.167 h
SMILES: O=C(O)[C@@H]1Cc2c([nH]c3cccc(F)c23)[C@@H](c2ccc(Cl)cc2Cl)N1 [Compound 20a]
% recovery (200 μM IPP) ([2]; drug at 2.5 μM): 100%@2.5 μM

SMILES: O=C(O)[C@@H]1Cc2c([nH]c3cc(F)ccc23)[C@@H](c2ccc(Cl)cc2Cl)N1 [Compound 20c]
EC50 [1]: 501 ± 47 nM | % recovery (200 μM IPP) ([2]; drug at 2.5 μM): 100%@2.5 μM | % remaining, Replicate 1 / Replicate 2 (in vitro [4]; 5 min): 105.2% | % remaining, Replicate 1 / Replicate 2 (in vitro [4]; 10 min): 105.5% | % remaining, Replicate 1 / Replicate 2 (in vitro [4]; 0.25 h): 100.5% | % remaining, Replicate 1 / Replicate 2 (in vitro [4]; 20 min): 100.4% | % remaining, Replicate 1 / Replicate 2 (in vitro [4]; 0.5 h): 85.7% | remaining at 0.5 min, 1 µM (in vitro [4]): 100% | remaining at 5 min, 1 µM (in vitro [4]): 90.9% | remaining at 10 min, 1 µM (in vitro [4]): 91.4% | remaining at 0.25 h, 1 µM (in vitro [4]): 84.7% | remaining at 20 min, 1 µM (in vitro [4]): 85.9% | remaining at 0.5 h, 1 µM (in vitro [4]): 95.2% | AUC(0-inf) (in vivo; iv, 10 mg/kg): 49.6 µM·h | AUC(0-t) (in vivo; iv, 10 mg/kg): 48.7 µM·h | C0 (in vivo; iv, 10 mg/kg): 34.5 µM | clearance (in vivo; iv, 10 mg/kg): 8.85 mL/min/kg | tlast (in vivo; iv, 10 mg/kg): 24 h | concentration at 24 h (in vivo; iv, 10 mg/kg, Cmin): 0.1 ± 0.1 µM | concentration at 0.083 h (in vivo; [6]): 33.3 µM | concentration at 0.25 h (in vivo; [6]): 30.9 ± 4 µM | concentration at 0.5 h (in vivo; [6]): 14.4 ± 4.1 µM | concentration at 1 h (in vivo; [6]): 9.7 ± 2 µM | concentration at 2 h (in vivo; [6]): 3.3 ± 1.5 µM | concentration at 4 h (in vivo; [6]): 1.4 ± 0.4 µM | concentration at 8 h (in vivo; [6]): 1.4 ± 0.3 µM | concentration at 24 h (in vivo; [6]): 0.1 ± 0.1 µM | half-life (in vivo; iv, 10 mg/kg, t1/2): 4.96 h | AUC0-inf (in vivo; po, 40 mg/kg): 114 µM·h | AUC(0-inf) (in vivo; po, 40 mg/kg): 114 µM·h | AUC(0-t) (in vivo; po, 40 mg/kg): 110 µM·h | Cmax (in vivo; po, 40 mg/kg): 19.9 ± 8.1 µM | Tmax (in vivo; po, 40 mg/kg): 0.5 h | oral AUC0-inf higher than that of 1 (in vivo; po, 40 mg/kg): 30% | tlast (in vivo; po, 40 mg/kg): 24 h | bioavailability (in vivo; po, 40 mg/kg, % F): 58% | bioavailability (in vivo; po, 40 mg/kg, %F): 57.8% | concentration at 24 h (in vivo; po, 40 mg/kg, Cmin): 0.6 ± 0.6 µM | concentration at 0.25 h (in vivo; [7]): 19.8 ± 8.1 µM | concentration at 0.5 h (in vivo; [7]): 19.9 ± 3.2 µM | concentration at 1 h (in vivo; [7]): 13.9 ± 10.8 µM | concentration at 2 h (in vivo; [7]): 8.8 ± 5.9 µM | concentration at 4 h (in vivo; [7]): 10 ± 3.7 µM | concentration at 8 h (in vivo; [7]): 3.9 ± 0.7 µM | concentration at 24 h (in vivo; [7]): 0.6 ± 0.06 µM | half-life (in vivo; po, 40 mg/kg, t 1/2): 5.2 h | half-life (in vivo; po, 40 mg/kg, t1/2): 5.17 h | reduction of luminescence relative to vehicle control ([5]; 40 mg/kg po Days 2-6, Day 7): did not reduce luminescence | reduction in parasitemia / efficacy ([5]; P. berghei mouse model, oral dosing (20c 5 × 40 mg per kg per day)): no reduction in parasitemia; also recorded: not efficacious | Luminescence after background subtraction AVG [5, 8]: 9.7E+06 | Luminescence after background subtraction, individual mice [5, 8]: 6.51E+05 and 2.35E+06 and 3.10E+06 and 4.05E+05 and 1.33E+06

loss of growth inhibition potency (EC50) relative to 1 ([1]; Dd2 strain): ≤ 3 fold | EC50 [1]: 717 ± 73 nM | % remaining, Replicate 1 / Replicate 2 (in vitro [4]; 5 min): 56.5% | % remaining, Replicate 1 / Replicate 2 (in vitro [4]; 10 min): 41.8% | % remaining, Replicate 1 / Replicate 2 (in vitro [4]; 0.25 h): 31.5% | % remaining, Replicate 1 / Replicate 2 (in vitro [4]; 20 min): 28.2% | % remaining, Replicate 1 / Replicate 2 (in vitro [4]; 0.5 h): 25.1% | remaining at 0.5 min, 1 µM (in vitro [4]): 100% | remaining at 5 min, 1 µM (in vitro [4]): 61.1% | remaining at 10 min, 1 µM (in vitro [4]): 42.6% | remaining at 0.25 h, 1 µM (in vitro [4]): 34.3% | remaining at 20 min, 1 µM (in vitro [4]): 30.3% | remaining at 0.5 h, 1 µM (in vitro [4]): 24.8%
SMILES: O=C(O)[C@@H]1Cc2c([nH]c3c(F)cccc23)[C@@H](c2ccc(Cl)cc2Cl)N1 [Compound 20d]
% recovery (200 μM IPP) ([2]; drug at 10 μM): 100%@10 μM

Source: article PMC12378621, “Benzo-ring modification on Malaria Box hit MMV008138: effects on antimalarial potency and microsomal stability” (RSC Medicinal Chemistry, 2025)
